Assay results taken from paper PMC10800876, “Evaluation of proline-rich antimicrobial peptides as potential lead structures for novel antimycotics against Cryptococcus neoformans” (Frontiers in Microbiology, 2024).
In brackets after ≈: the same amount, converted by molar mass. Read-outs that look alike come from different tables or passages of the source. Residues, ends and D or L forms follow the SMILES beside them. *: point of attachment. Orn(α-tetramethylguanidino) = CN(C)C(=N[C@@H](CCCN)C(=O)*)N(C)C

Experiments:
[1] = test system: C. neoformans 1841 (serotype D); experiment: microbe, parasite or virus in culture; details: Cryptococcus neoformans
C. neoformans 1841 [2] = experiment: Antifungal activity assay (CFU on SAB agar); type: cell-based, Cryptococcus neoformans; details: treatment 3 h, 30 °C, mean ± SD, n = 4; for cell count C. neoformans 1841, 24 h: CFU counted after 24 h; for cell count C. neoformans 1841, 48 h: CFU counted after 48 h
C. neoformans KN99α = experiment: Antifungal activity assay (CFU on SAB agar); type: cell-based, Cryptococcus neoformans; details: treatment 3 h, 30 °C, mean ± SD, n = 4; for cell count C. neoformans KN99α, 24 h: CFU counted after 24 h; for cell count C. neoformans KN99α, 48 h: CFU counted after 48 h
C. neoformans H99 = experiment: Antifungal activity assay (CFU on SAB agar); type: cell-based, Cryptococcus neoformans; details: treatment 3 h, 30 °C, mean ± SD, n = 4; for cell count C. neoformans H99, 24 h: CFU counted after 24 h; for cell count C. neoformans H99, 48 h: CFU counted after 48 h
[3] = test system: C. neoformans KN99α (serotype A, mating type MATα); experiment: microbe, parasite or virus in culture; details: Cryptococcus neoformans
[4] = test system: C. neoformans H99 (serotype A); experiment: microbe, parasite or virus in culture; details: Cryptococcus neoformans
[5] = test system: C. neoformans strains 1841, H99, and KN99α; experiment: Broth microdilution assay (MIC); type: cell-based, Cryptococcus neoformans
C. neoformans 1841 [6] = experiment: Time-kill assay; type: cell-based, Cryptococcus neoformans; details: 2.5 μmol/L, 30°C, up to 24 h
Protocol: The kinetic effects of the antifungal activity were determined by diluting overnight cultures to 5 × 10^4 CFU/mL with 50% SAB in phosphate buffer. Aqueous peptide solutions (20 μL) were added to the cell suspension (80 μL) to give a final peptide concentration of 2.5 μmol/L. Samples were incubated at 30°C on an orbital shaker (750 rpm, Titramax 1,000, Heidolph Instruments GmbH & Co. KG) for 24 h. Before incubation (0 min) and after 45 min, 90 min, 3 h, 6 h, and 24 h incubation, aliquots (10 μL) of samples were taken and diluted with phosphate buffer (10 mmol/L, pH 7.5) to observe countable cell colonies. Aliquots (100 μL) of the diluted cell suspensions were plated on SAB agar plates. Plates were incubated at 30°C and colonies were counted after 24 h.

[7] = test system: C. neoformans strains 1841, H99, and KN99α; experiment: Antifungal activity assay (CFU); type: cell-based, Cryptococcus neoformans; details: only small colonies appearing after more than 24 h
[8] = test system: C. neoformans KN99α (serotype A, mating type MATα)
[9] = test system: C. neoformans H99 (serotype A)
[10] = test system: C. neoformans 1841 (serotype D)
[11] = 24 h, pH 7.5, read-out: MIC (μmol/L) 1841 24 h
[12] = 24 h, read-out: MIC (mg/L) 1841 24 h
[13] = 48 h, pH 7.5, read-out: MIC (μmol/L) 1841 48 h
[14] = 48 h, read-out: MIC (mg/L) 1841 48 h
[15] = 24 h, read-out: MIC (mg/L) KN99α 24 h
[16] = 24 h, read-out: MIC (μmol/L) KN99α 24 h
[17] = 48 h, read-out: MIC (mg/L) KN99α 48 h
[18] = 48 h, read-out: MIC (μmol/L) KN99α 48 h
[19] = 24 h, read-out: MIC (mg/L) H99 24 h
[20] = 24 h, read-out: MIC (μmol/L) H99 24 h
[21] = 48 h, read-out: MIC (mg/L) H99 48 h
[22] = 48 h, read-out: MIC (μmol/L) H99 48 h
[23] = Cryptococcus neoformans, read-out: MIC
[24] = broth microdilution, 50% SAB in phosphate buffer, 30°C, read after 24 h, n = 6
[25] = broth microdilution, 50% SAB in phosphate buffer, 30°C, read after 48 h, n = 6
[26] = KN99α (serotype A, mating type MATα, 24 h)
[27] = KN99α (serotype A, mating type MATα, 48 h)
[28] = 1841 (serotype D, 24 h, pH 7.5)
[29] = 1841 (serotype D, 48 h, pH 7.5)
[30] = strains 1841, H99, and KN99α, 24 h

Compound	MIC [1, 11] [µmol/L]	cell count C. neoformans 1841, 24 h (C. neoformans 1841 [2]; 0.25 µmol/L)	cell count C. neoformans 1841, 48 h (C. neoformans 1841 [2]; 0.25 µmol/L)	cell count C. neoformans 1841, 24 h (C. neoformans 1841 [2]; 2.5 µmol/L)	cell count C. neoformans 1841, 48 h (C. neoformans 1841 [2]; 2.5 µmol/L)	cell count C. neoformans 1841, 24 h (C. neoformans 1841 [2]; 25 µmol/L)	cell count C. neoformans 1841, 48 h (C. neoformans 1841 [2]; 25 µmol/L)	cell count C. neoformans KN99α, 24 h (C. neoformans KN99α; 0.25 µmol/L)	cell count C. neoformans KN99α, 48 h (C. neoformans KN99α; 0.25 µmol/L)	cell count C. neoformans KN99α, 24 h (C. neoformans KN99α; 2.5 µmol/L)	cell count C. neoformans KN99α, 48 h (C. neoformans KN99α; 2.5 µmol/L)	cell count C. neoformans KN99α, 24 h (C. neoformans KN99α; 25 µmol/L)	cell count C. neoformans KN99α, 48 h (C. neoformans KN99α; 25 µmol/L)	cell count C. neoformans H99, 24 h (C. neoformans H99; 0.25 µmol/L)	cell count C. neoformans H99, 48 h (C. neoformans H99; 0.25 µmol/L)	cell count C. neoformans H99, 24 h (C. neoformans H99; 2.5 µmol/L)	cell count C. neoformans H99, 48 h (C. neoformans H99; 2.5 µmol/L)	cell count C. neoformans H99, 24 h (C. neoformans H99; 25 µmol/L)	cell count C. neoformans H99, 48 h (C. neoformans H99; 25 µmol/L)	MIC [5] [µg/mL]	other results
Nc1[nH]c(=O)ncc1F [Flucytosine, flucytosine, reference compound]	496	2.2 ± 0.1 x 10^4 CFU/mL	2.2 ± 0.1 x 10^4 CFU/mL	2.4 ± 0.2 x 10^4 CFU/mL	2.4 ± 0.2 x 10^4 CFU/mL	2.4 ± 0.0 x 10^4 CFU/mL	2.4 ± 0.0 x 10^4 CFU/mL	3.4 ± 0.7 x 10^4 CFU/mL	3.4 ± 0.8 x 10^4 CFU/mL	3.1 ± 0.5 x 10^4 CFU/mL	3.2 ± 0.5 x 10^4 CFU/mL	3.3 ± 0.5 x 10^4 CFU/mL	3.3 ± 0.5 x 10^4 CFU/mL	3.1 ± 0.8 x 10^4 CFU/mL	3.2 ± 0.7 x 10^4 CFU/mL	3.7 ± 0.4 x 10^4 CFU/mL	3.9 ± 0.3 x 10^4 CFU/mL	3.1 ± 0.5 x 10^4 CFU/mL	3.3 ± 0.6 x 10^4 CFU/mL	≥ 64	MIC [1, 12]: 64 mg/L; MIC [1, 13]: 992 µmol/L; MIC [1, 14]: 128 mg/L; MIC [3, 15]: 128 mg/L; MIC [3, 16]: 992 µmol/L; MIC [3, 17]: > 128 mg/L; MIC [3, 18]: > 992 µmol/L; MIC [4, 19]: 64 mg/L; MIC [4, 20]: 496 µmol/L; MIC [4, 21]: > 128 mg/L; MIC [4, 22]: > 992 µmol/L; MIC [5, 23]: ≥ 496 µM
OC(Cn1cncn1)(Cn1cncn1)c1ccc(F)cc1F [Fluconazole, fluconazole, reference compound]	105	2.5 ± 0.0 x 10^4 CFU/mL	2.5 ± 0.0 x 10^4 CFU/mL	2.7 ± 0.2 x 10^4 CFU/mL	2.7 ± 0.2 x 10^4 CFU/mL	1.9 ± 0.3 x 10^4 CFU/mL	1.9 ± 0.3 x 10^4 CFU/mL	2.9 ± 0.5 x 10^4 CFU/mL	3.0 ± 0.6 x 10^4 CFU/mL	3.3 ± 0.6 x 10^4 CFU/mL	3.4 ± 0.7 x 10^4 CFU/mL	3.2 ± 0.5 x 10^4 CFU/mL	3.3 ± 0.5 x 10^4 CFU/mL	3.4 ± 0.5 x 10^4 CFU/mL	3.8 ± 0.3 x 10^4 CFU/mL	3.4 ± 0.4 x 10^4 CFU/mL	3.5 ± 0.4 x 10^4 CFU/mL	3.3 ± 0.8 x 10^4 CFU/mL	3.5 ± 0.8 x 10^4 CFU/mL	4 to 32	MIC [1, 12]: 32 mg/L; MIC [1, 13]: 105 µmol/L; MIC [1, 14]: 32 mg/L; MIC [3, 15]: 4 mg/L; MIC [3, 16]: 13 µmol/L; MIC [3, 17]: 8 mg/L; MIC [3, 18]: 26 µmol/L; MIC [4, 19]: 16 mg/L; MIC [4, 20]: 53 µmol/L; MIC [4, 21]: 16 to 32 mg/L; MIC [4, 22]: 53 to 105 µmol/L; MIC [5, 23]: 13 to 105 µM
gu-OIOIORPVYOPRPRPPHPRL-OH [Api795]		1.4 ± 0.6 x 10^4 CFU/mL	1.4 ± 0.6 x 10^4 CFU/mL	2.1 ± 0.1 x 10^4 CFU/mL	2.1 ± 0.1 x 10^4 CFU/mL	0.2 ± 0.0 x 10^4 CFU/mL	0.2 ± 0.0 x 10^4 CFU/mL	2.9 ± 0.3 x 10^4 CFU/mL	2.9 ± 0.4 x 10^4 CFU/mL	1.7 ± 0.7 x 10^4 CFU/mL	1.9 ± 0.8 x 10^4 CFU/mL	0.1 ± 0.1 x 10^4 CFU/mL	0.4 ± 0.1 x 10^4 CFU/mL	3.3 ± 0.3 x 10^4 CFU/mL	3.6 ± 0.6 x 10^4 CFU/mL	1.4 ± 0.4 x 10^4 CFU/mL	2.0 ± 0.2 x 10^4 CFU/mL	0.1 ± 0.0 x 10^4 CFU/mL	0.5 ± 0.2 x 10^4 CFU/mL		time-dependent antifungal effect (C. neoformans 1841 [6]): delayed antifungal effect; colony formation on agar [7]: delayed colony formation; MIC (mg/L) KN99α 24 h [8, 24]: 4 to 8 mg/L; MIC (μmol/L) KN99α 24 h [8, 24]: 1.6 to 3.2 µmol/L; MIC (μmol/L) KN99α 48 h [8, 25]: 3.2 µmol/L; MIC (μmol/L) H99 24 h [9, 24]: 3.2 µmol/L; MIC (μmol/L) H99 48 h [9, 25]: 3.2 µmol/L; MIC (μmol/L) 1841 24 h ([10]; broth microdilution, 50% SAB in phosphate buffer pH 7.5, 5 × 10^4 CFU/mL, 30°C, read after 24 h, mean of six replicates (n = 6)): 1.6 µmol/L; MIC (μmol/L) 1841 48 h ([10]; broth microdilution, 50% SAB in phosphate buffer pH 7.5, 5 × 10^4 CFU/mL, 30°C, read after 48 h, n = 6): 3.2 µmol/L
CC[C@H](C)[C@H](NC(=O)[C@@H]1CCCN1C(=O)[C@H](CCCNC(=N)N)NC(=O)[C@@H]1CCCN1C(=O)[C@H](Cc1c[nH]cn1)NC(=O)[C@H](CO)NC(=O)[C@@H](NC(=O)[C@@H]1CCCN1C(=O)[C@H](CCCNC(=N)N)NC(=O)[C@@H]1CCCN1C(=O)[C@H](CO)NC(=O)[C@H](Cc1ccc(O)cc1)NC(=O)[C@@H]1CCCN1C(=O)[C@H](CCCNC(=N)N)NC(=O)[C@@H]1CCCN1C(=O)[C@H](CCCCN)NC(=O)CN)[C@@H](C)O)C(=O)N[C@@H](CCCNC(=N)N)C(=O)N[C@H](C(=O)O)C(C)C [Drosocin, reference compound] (H-GKPRPYSPRPTSHPRPIRV-OH)																					MIC (μmol/L) KN99α 24 h [8, 26]: >58 µmol/L; MIC (μmol/L) KN99α 48 h [8, 27]: >58 µmol/L; MIC (μmol/L) H99 24 h ([9]; H99 (serotype A, 24 h)): 58 µmol/L (≈ 128 µg/mL); MIC (μmol/L) H99 48 h ([9]; H99 (serotype A, 48 h)): >58 µmol/L; MIC (μmol/L) 1841 24 h [10, 28]: 29 µmol/L (≈ 63.8 µg/mL); MIC (μmol/L) 1841 48 h [10, 29]: 58 µmol/L (≈ 128 µg/mL); MIC [5, 30]: > 58 µM
CC[C@H](C)[C@H](NC(=O)[C@H](Cc1ccc(O)cc1)NC(=O)[C@@H](NC(=O)[C@@H]1CCCN1C(=O)[C@H](CCCNC(=N)N)NC(=O)[C@H](CC(N)=O)NC(=O)[C@H](CC(N)=O)NC(=O)[C@H](CCCN)N=C(N(C)C)N(C)C)C(C)C)C(=O)N1CCC[C@H]1C(=O)N[C@@H](CCCNC(=N)N)C(=O)N1CCC[C@H]1C(=O)N[C@@H](CCCNC(=N)N)C(=O)N1CCC[C@H]1C(=O)N1CCC[C@H]1C(=O)N[C@@H](Cc1c[nH]cn1)C(=O)N1CCC[C@H]1C(=O)N[C@@H](CCCNC(=N)N)C(=O)N[C@@H](CC(C)C)C(=O)O [Api137] ({Orn(α-tetramethylguanidino)}-NNRPVYIPRPRPPHPRL-OH; N-terminus and C-terminus assumed)																				32 to 64	MIC (mg/L) KN99α 24 h [8, 26]: 32 to 64 mg/L; MIC (μmol/L) KN99α 24 h [8, 26]: 14 to 28 µmol/L; MIC (mg/L) KN99α 48 h [8, 27]: 64 to 128 mg/L; MIC (μmol/L) KN99α 48 h [8, 27]: 28 to 56 µmol/L; MIC (μmol/L) H99 24 h ([9]; H99 (serotype A, 24 h)): 14 µmol/L (≈ 32.1 µg/mL); MIC (μmol/L) H99 48 h ([9]; H99 (serotype A, 48 h)): 28 µmol/L (≈ 64.2 µg/mL); MIC (μmol/L) 1841 24 h [10, 28]: 14 µmol/L (≈ 32.1 µg/mL); MIC (μmol/L) 1841 48 h [10, 29]: 28 µmol/L (≈ 64.2 µg/mL); MIC (mg/L) 1841 24 h [10, 24]: 32 mg/L (≈ 14 µM); MIC (mg/L) 1841 48 h [10, 25]: 64 mg/L (≈ 27.9 µM); MIC [5, 30]: 14 to 28 µM
